pKd: −log10 of the molar value. Where a name gives a salt, the structure may show the parent alone.
Target: T1, irisin (Homo sapiens, UniProt Q8NAU1)
T1 sequence (Q8NAU1 80-191): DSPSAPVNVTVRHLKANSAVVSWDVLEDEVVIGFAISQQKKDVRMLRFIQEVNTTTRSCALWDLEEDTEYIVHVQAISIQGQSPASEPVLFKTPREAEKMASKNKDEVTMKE
Assay: isothermal titration calorimetry
Format: binding

pKd: 4.84
SMILES: CCN(C)C(=O)Oc1cccc([C@H](C)N(C)C)c1 [RT, rivastigmine tartrate]

Source: PMC7992156 (ACS Omega, 2021)
